Data on seven compounds can be found in article PMC8154557 (Journal of Medicinal Chemistry, 2021).

SMILES strings stand for the structures.

Data set [1] has as its target Stx1B (Shigella dysenteriae, UniProt Q7BQ98). The experiment in a line: biochemical. It is filed as binding, Escherichia coli.
The subject of data set [2] is T84 cells. As to the kind of experiment: Viability MTT assay. The conditions noted are these: 10%, positive control, 24 h. For orientation: Tetrazolium assays rely on reduction of a dye to a coloured formazan, in cell work by metabolically active cells.
Data set [3] relates to T84 cells. As to the kind of experiment: TEER measurement of epithelial integrity. The conditions noted are these: 10%, positive control, 24 h.

A word on the IC50: it is the concentration needed to halve the response being measured. Low readings indicate greater potency, high ones weaker potency.

Chain of Stx1B (Q7BQ98 21-89 limits assumed): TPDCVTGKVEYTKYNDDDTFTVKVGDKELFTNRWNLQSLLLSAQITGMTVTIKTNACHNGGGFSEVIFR

For `O=C(NCCCCCCCCCCCCNC(=O)c1cc(OCc2cn([C@@H]3O[C@H](CO)[C@H](O[C@H]4O[C@H](CO)[C@H](O)[C@H](O)[C@H]4O)[C@H](O)[C@H]3O)nn2)cc(OCc2cn([C@@H]3O[C@H](CO)[C@H](O[C@H]4O[C@H](CO)[C@H](O)[C@H](O)[C@H]4O)[C@H](O)[C@H]3O)nn2)c1)c1cc(OCc2cn([C@@H]3O[C@H](CO)[C@H](O[C@H]4O[C@H](CO)[C@H](O)[C@H](O)[C@H]4O)[C@H](O)[C@H]3O)nn2)cc(OCc2cn([C@@H]3O[C@H](CO)[C@H](O[C@H]4O[C@H](CO)[C@H](O)[C@H](O)[C@H]4O)[C@H](O)[C@H]3O)nn2)c1` [Compound 6], in data set [1], the “rel. pot. per sugar” value stood at 92 and the rel.pot. amounted to 367.
On to `OC[C@H]1O[C@@H](O[C@H]2[C@H](O)[C@@H](O)C(O)O[C@@H]2CO)[C@H](O)[C@@H](O)[C@H]1O` (mixture of isomers) [Lactose, reference compound], for which the “inhibition of the toxin (in words)” value in data set [1] is recorded as “did not show any activity”.
For the compound `O=C(O)c1cc(OCCNC(=O)c2cc(OCc3cn([C@@H]4O[C@H](CO)[C@H](O[C@H]5O[C@H](CO)[C@H](O)[C@H](O)[C@H]5O)[C@H](O)[C@H]4O)nn3)cc(OCc3cn([C@@H]4O[C@H](CO)[C@H](O[C@H]5O[C@H](CO)[C@H](O)[C@H](O)[C@H]5O)[C@H](O)[C@H]4O)nn3)c2)cc(OCCNC(=O)c2cc(OCc3cn([C@@H]4O[C@H](CO)[C@H](O[C@H]5O[C@H](CO)[C@H](O)[C@H](O)[C@H]5O)[C@H](O)[C@H]4O)nn3)cc(OCc3cn([C@@H]4O[C@H](CO)[C@H](O[C@H]5O[C@H](CO)[C@H](O)[C@H](O)[C@H]5O)[C@H](O)[C@H]4O)nn3)c2)c1` [Compound 5], in data set [1], the “rel. pot. per sugar” value was 62.5 and the rel.pot. was determined as 250.
For `CCO` [ethanol], the “T84 cell viability (MTT)” value in data set [2] is reported as “significantly reduced”. Also, the “transepithelial electrical resistance (TEER) values” in data set [3] is “strongly decreased”.
For the compound `O=C(O)c1cc(OCc2cn([C@@H]3O[C@H](CO)[C@H](O[C@H]4O[C@H](CO)[C@H](O)[C@H](O)[C@H]4O)[C@H](O)[C@H]3O)nn2)cc(OCc2cn([C@@H]3O[C@H](CO)[C@H](O[C@H]4O[C@H](CO)[C@H](O)[C@H](O)[C@H]4O)[C@H](O)[C@H]3O)nn2)c1` [Compound 3], in data set [1], the “rel. pot. per sugar” value came to 2.3 and the rel.pot. came out at 4.6. Moreover, it took 1000 µM to reach half-maximal inhibition in data set [1] (IC50) (IC50).
As for `[N-]=[N+]=N[C@@H]1O[C@H](CO)[C@H](O[C@H]2O[C@H](CO)[C@H](O)[C@H](O)[C@H]2O)[C@H](O)[C@H]1O` [Compound 1e], the “rel. pot. per sugar” value in data set [1] is listed as 1.
Consider `O=C(NCCOc1cc(OCCNC(=O)OCc2cn([C@@H]3O[C@H](CO)[C@H](O[C@H]4O[C@H](CO)[C@H](O)[C@H](O)[C@H]4O)[C@H](O)[C@H]3O)nn2)cc(C(=O)O)c1)OCc1cn([C@@H]2O[C@H](CO)[C@H](O[C@H]3O[C@H](CO)[C@H](O)[C@H](O)[C@H]3O)[C@H](O)[C@H]2O)nn1` [Compound 4], for which, in data set [1], the “rel. pot. per sugar” value is 2 and the rel.pot. came out at 4.
